Measurements published in patent US11072607B2, “Inhibitors of RIP1 kinase and methods of use thereof” (priority 2016, dated 2021).

Molecular target: human RIP1 kinase domain (2-375) (Homo sapiens (Human), UniProt Q13546)
Experiment: RIP1 kinase inhibition assay (biochemical, Transcreener ADP assay)
Conditions: RIP1 Ki, tight-binding apparent inhibition constant (Ki app, Morrison equation); 50 nM enzyme, 50 uM ATP, 2 hours incubation, fluorescence polarization
Method: Example 45: RIP1 Kinase Inhibition Assays (Biochemical Assay)
The compounds of the present invention were tested for their capacity to inhibit RIP1K activity as described below.
The ability of the receptor interacting protein kinase (RIPK1) to catalyze the hydrolysis of adenosine-5′-triphosphate (ATP) is monitored using the Transcreener ADP (adenosine-5′-diphosphate) assay (BellBrook Labs). Purified human RIP1 kinase domain (2-375) (50 nM) derived from a baculovirus-infected insect cell expression system is incubated with test compounds for 2 hours in 50 mM Hepes buffer (pH 7.5) containing 30 mM MgCl2, 1 mM dithiothreitol, 50 uM ATP, 0.002% Brij-35, and 0.5% dimethyl sulfoxide (DMSO). Reactions are quenched by the addition of 1× Bell Brooks Stop buffer B (20 mM Hepes (ph 7.5), 40 mM ethylenediaminetetraacetic acid and 0.02% Brij-35) containing an additional 12 mM EDTA and 55 ug/mL ADP2 antibody and 4 nM ADP-AlexaFluor® 633 tracer. The tracer bound to the antibody is displaced by the ADP generated during the RIP1K reaction, which causes a decrease in fluorescence polarization that is measured by laser excitation at 633 nm with a FP microplate reader M1000. Fractional activity was plotted against test article concentration. Using Genedata Screener software (Genedata; Basel, Switzerland), the data were fit to the tight-binding apparent inhibition constant (Ki^app) Morrison equation [Williams, J. W. and Morrison, J. F. (1979) The kinetics of reversible tight-binding inhibition. Methods Enzymol 63: 437-67]. The following equation was used to calculate fractional activity and Ki^app: […]
where [E]T and [I]T are the total concentrations of active enzyme and test article, respectively. […]

human RIP1 kinase domain (2-375), sequence (Q13546 2-375): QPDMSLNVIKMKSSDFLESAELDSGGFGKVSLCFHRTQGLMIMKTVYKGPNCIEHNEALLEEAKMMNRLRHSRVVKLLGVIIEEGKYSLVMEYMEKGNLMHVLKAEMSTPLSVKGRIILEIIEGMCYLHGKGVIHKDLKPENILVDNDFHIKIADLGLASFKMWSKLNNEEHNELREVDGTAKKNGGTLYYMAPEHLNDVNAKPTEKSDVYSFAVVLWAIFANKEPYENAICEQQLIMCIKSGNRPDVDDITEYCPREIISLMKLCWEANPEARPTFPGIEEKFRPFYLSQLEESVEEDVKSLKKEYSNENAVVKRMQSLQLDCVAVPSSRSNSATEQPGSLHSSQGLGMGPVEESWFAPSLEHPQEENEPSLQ

| Ki [nM] | Structure (SMILES) |
| --- | --- |
| 43 | CN1C(=O)[C@@H](NC(=O)c2nc3n(n2)[C@H](c2ccccc2)C[C@@H]3F)CCn2nccc21 (mixture of isomers) [Example #29, Rac-(5S,7S)-7-fluoro-5-phenyl-N-[(6S)-4-methyl-5-oxo-7,8-dihydro-6H-pyrazolo[1,5-a][1,3]diazepin-6-yl]-6,7-dihydro-5H-pyrrolo[1,2-b][1,2,4]triazole-2-carboxamide] |
| 15 | O=C(N[C@H]1CCc2cc(F)cc(F)c2NC1=O)c1nc2n(n1)[C@@H](c1ccccc1)C[C@@H]2F (mixture of isomers) [Example #31, Rac-(5R,7S)-7-fluoro-5-phenyl-N-[(3S)-7,9-difluoro-2-oxo-1,3,4,5-tetrahydro-1-benzazepin-3-yl]-6,7-dihydro-5H-pyrrolo[1,2-b][1,2,4]triazole-2-carboxamide] |
| 14 | CN1C(=O)[C@@H](NC(=O)c2nc3n(n2)[C@@H](c2ccccc2)C[C@@H]3F)COc2ccccc21 (mixture of isomers) [Example #32, rac-(5R,7S)-7-fluoro-5-phenyl-N-[(3S)-5-methyl-4-oxo-2,3-dihydro-1,5-benzoxazepin-3-yl]-6,7-dihydro-5H-pyrrolo[1,2-b][1,2,4]triazole-2-carboxamide] |
| 24 | CN1C(=O)[C@@H](NC(=O)c2nc3n(n2)[C@H](c2ccccc2)C[C@@H]3F)CCn2nccc21 (racemic) [Example #38, rac-(5S,7S)-7-fluoro-5-phenyl-N-[rac-(6S)-4-methyl-5-oxo-7,8-dihydro-6H-pyrazolo[1,5-a][1,3]diazepin-6-yl]-6,7-dihydro-5H-pyrrolo[1,2-b][1,2,4]triazole-2-carboxamide] |
| 27 | Cc1cc2n(n1)CC[C@H](NC(=O)c1nc3n(n1)[C@H](c1ccccc1)C[C@@H]3F)C(=O)N2C (racemic) [Example #39, rac-(5S,7S)-7-fluoro-5-phenyl-N-[rac-(6S)-2,4-dimethyl-5-oxo-7,8-dihydro-6H-pyrazolo[1,5-a][1,3]diazepin-6-yl]-6,7-dihydro-5H-pyrrolo[1,2-b][1,2,4]triazole-2-carboxamide] |
| 35 | Cc1cc2n(n1)CC[C@H](NC(=O)c1nc3n(n1)[C@@H](c1ccccc1)CC3(F)F)C(=O)N2C (racemic) [Example #41, rac-(5R)-7,7-difluoro-5-phenyl-N-[rac-(6S)-2,4-dimethyl-5-oxo-7,8-dihydro-6H-pyrazolo[1,5-a][1,3]diazepin-6-yl]-5,6-dihydropyrrolo[1,2-b][1,2,4]triazole-2-carboxamide] |
| 5 | CN1C(=O)[C@@H](NC(=O)c2nc3n(n2)[C@@H](c2ccccc2)CC3(F)F)COc2ccccc21 (racemic) [Example #42, rac-(5R)-7,7-difluoro-5-phenyl-N-[rac-(3S)-5-methyl-4-oxo-2,3-dihydro-1,5-benzoxazepin-3-yl]-5,6-dihydropyrrolo[1,2-b][1,2,4]triazole-2-carboxamide] |
| 28 | CN1C(=O)[C@@H](NC(=O)c2nc3n(n2)[C@@H](c2ccccc2)CC3(F)F)CCn2nccc21 (racemic) [Example #43, rac-(5R)-7,7-difluoro-5-phenyl-N-[rac-(6S)-4-methyl-5-oxo-7,8-dihydro-6H-pyrazolo[1,5-a][1,3]diazepin-6-yl]-5,6-dihydropyrrolo[1,2-b][1,2,4]triazole-2-carboxamide] |
| 18 | CN1C(=O)[C@@H](NC(=O)c2nc3n(n2)[C@H](c2ccccc2)C[C@@H]3F)COc2ccccc21 (single isomer, unassigned) [Example #30] |
| 5 | CN1C(=O)[C@@H](NC(=O)c2nc3n(n2)[C@H](c2ccccc2)C[C@@H]3F)COc2ccccc21 (single isomer, unassigned) [Example #40] |

Same assay, conditions: tight-binding apparent inhibition constant (Ki app, Morrison equation); 50 nM enzyme, 50 uM ATP, 2 hours incubation, fluorescence polarization; read-out: RIP1 Ki

| Structure (SMILES) | Ki [nM] |
| --- | --- |
| CN1C(=O)[C@@H](NC(=O)c2nc3n(n2)CC[C@H]3c2ccccc2F)CCn2nccc21 (single isomer, unassigned) [Example #7] | 22 |
| Cc1cc2n(n1)CC[C@H](NC(=O)c1nc3n(n1)CC[C@H]3c1ccccc1F)C(=O)N2C (single isomer, unassigned) [Example #8] | 18 |
| COc1cc2c(cn1)N(C)C(=O)[C@@H](NC(=O)c1nc3n(n1)[C@H](c1ccccc1F)CC3)CC2 (single isomer, unassigned) [Example #11] | 11 |
| O=C(N[C@H]1CCc2ncccc2NC1=O)c1nc2n(n1)[C@@H](c1ccccc1)CC2 (single isomer, unassigned) [Example #13] | 41 |
| O=C(N[C@H]1CCc2ncccc2NC1=O)c1nc2n(n1)[C@H](c1ccccc1F)CC2 (single isomer, unassigned) [Example #14] | 19 |
| CN1C(=O)[C@@H](NC(=O)c2nc3n(n2)CC[C@H]3c2ccccc2F)CCc2ncccc21 (single isomer, unassigned) [Example #15] | 42 |
| CN1C(=O)[C@@H](NC(=O)c2nc3n(n2)[C@@H](c2ccccc2F)CC3)CCc2ncccc21 (single isomer, unassigned) [Example #16] | 29 |
| CN1C(=O)[C@@H](NC(=O)c2nc3n(n2)CC[C@H]3c2ccccc2)CCc2ncccc21 (single isomer, unassigned) [Example #17] | 37 |
| CN1C(=O)[C@@H](NC(=O)c2nc3n(n2)[C@H](c2ccccc2)CC3)CCc2ncccc21 (single isomer, unassigned) [Example #18] | 44 |
| CN1C(=O)[C@@H](NC(=O)c2ncn(Cc3ccccc3)n2)CCc2nn(C)cc21 (single isomer, unassigned) [Example #20] | 46 |
| CN1C(=O)[C@@H](NC(=O)c2ncn(Cc3ccccc3F)n2)CCc2nn(C)cc21 (single isomer, unassigned) [Example #21] | 26 |
| CN1C(=O)[C@@H](NC(=O)c2ncn(Cc3ccccc3)n2)CCc2c1cnn2C (single isomer, unassigned) [Example #22] | 14 |
| Cc1cc2n(n1)CC[C@H](NC(=O)c1nc3n(n1)[C@@H](c1ccccc1)C[C@@H]3F)C(=O)N2C (single isomer, unassigned) [Example #37] | 30 |
| CN1C(=O)[C@@H](NC(=O)c2cc3c(cn2)cnn3CC(C)(F)F)COc2ccccc21 [Example #2, 1-(2,2-difluoropropyl)-N-[(3S)-5-methyl-4-oxo-2,3-dihydro-1,5-benzoxazepin-3-yl]pyrazolo[4,3-c]pyridine-6-carboxamide] | 29 |
| CN1C(=O)[C@@H](NC(=O)c2ncc3cnn(CC(C)(F)F)c3n2)COc2ccccc21 [Example #3, 1-(2,2-difluoropropyl)-N-[(3S)-5-methyl-4-oxo-2,3-dihydro-1,5-benzoxazepin-3-yl]pyrazolo[3,4-d]pyrimidine-6-carboxamide] | 35 |
| CN1C(=O)[C@@H](NC(=O)c2ncc3cnn(C4CC4)c3n2)COc2ccccc21 [Example #4, 1-cyclopropyl-N-[(3S)-5-methyl-4-oxo-2,3-dihydro-1,5-benzoxazepin-3-yl]pyrazolo[3,4-d]pyrimidine-6-carboxamide] | 22 |
| O=C(N[C@H]1CCc2cc(F)cc(F)c2NC1=O)c1cc2n(n1)CCOC2c1ccccc1 (stereo partly drawn) [Example #5, 4-phenyl-N-[(3S)-7,9-difluoro-2-oxo-1,3,4,5-tetrahydro-1-benzazepin-3-yl]-6,7-dihydro-4H-pyrazolo[5,1-c][1,4]oxazine-2-carboxamide] | 11 |
| CN1C(=O)[C@@H](NC(=O)c2ncn(Cc3ccccc3)n2)CCn2nc(CC3CCOC3)cc21 (stereo partly drawn) [Example #19, 1-benzyl-N-[(6S)-4-methyl-5-oxo-2-(tetrahydrofuran-3-ylmethyl)-7,8-dihydro-6H-pyrazolo[1,5-a][1,3]diazepin-6-yl]-1,2,4-triazole-3-carboxamide] | 16 |

Further lines, results first:

| Ki [nM] | Structure (SMILES) |
| --- | --- |
| 13 | CN1C(=O)[C@@H](NC(=O)c2ncn(Cc3ccccc3F)n2)CCc2c1cnn2C (single isomer, unassigned) [Example #23] |
| 13 | O=C(N[C@H]1CCc2cc(F)cc(F)c2NC1=O)c1nc2n(n1)[C@@H](c1ccccc1)C[C@H]2F (single isomer, unassigned) [Example #33] |
| 31 | O=C(N[C@H]1CCc2cc(F)cc(F)c2NC1=O)c1nc2n(n1)[C@H](c1ccccc1)C[C@H]2F (single isomer, unassigned) [Example #34] |
| 15 | CN1C(=O)[C@@H](NC(=O)c2nc3n(n2)[C@H](c2ccccc2)C[C@H]3F)COc2ccccc21 (single isomer, unassigned) [Example #35] |
| 32 | CN1C(=O)[C@@H](NC(=O)c2nc3n(n2)[C@@H](c2ccccc2)C[C@@H]3F)CCn2nccc21 (single isomer, unassigned) [Example #36] |
| 7 | CCC(F)(F)[C@@H]1CCc2nc(C(=O)N[C@H]3COc4ccccc4N(C)C3=O)nn21 (single isomer, unassigned) [Example #44] |
